{"source": "ChEMBL document CHEMBL3407459", "about": "“Synthesis and antimicrobial activity of novel structural hybrids of benzofuroxan and benzothiazole derivatives” (2015)", "key": {"[1]": {"test_system": "Vibrio sp.", "test": "Antibacterial activity against Vibrio aqamarinus VKPM B-11245 assessed as toxicity index at 10^-14 M measured for 2 hrs by luminometric analysis", "type": "functional"}, "[2]": {"test_system": "Escherichia coli", "test": "Antibacterial activity against Escherichia coli MG1655 harboring pColD-lux assessed as maximum induction factor at 10^-12 M after 120 mins by luminometric analysis", "type": "functional, K-12 substr. MG1655"}, "[3]": {"test_system": "Escherichia coli", "test": "Antibacterial activity against Escherichia coli MG1655 harboring pKatG-lux assessed as maximum induction factor at 10^-3 M after 120 mins by luminometric analysis", "type": "functional, K-12 substr. MG1655"}, "[4]": {"test_system": "Vibrio sp.", "test": "Antibacterial activity against Vibrio aqamarinus VKPM B-11245 assessed as toxicity index at 10^-13 M measured for 2 hrs by luminometric analysis", "type": "functional"}, "[5]": {"test_system": "Vibrio sp.", "test": "Antibacterial activity against Vibrio aqamarinus VKPM B-11245 assessed as toxicity index at 10^-12 M measured for 2 hrs by luminometric analysis", "type": "functional"}, "[6]": {"test_system": "Escherichia coli", "test": "Antibacterial activity against Escherichia coli MG1655 harboring pSoxS-lux assessed as maximum induction factor at 10^-11 M after 120 mins by luminometric analysis", "type": "functional, K-12 substr. MG1655"}, "[7]": {"test_system": "Escherichia coli", "test": "Antibacterial activity against Escherichia coli MG1655 harboring pGrpE-lux assessed as maximum induction factor at 10^-12 M after 120 mins by luminometric analysis", "type": "functional, K-12 substr. MG1655"}, "[8]": {"test_system": "Escherichia coli", "test": "Antibacterial activity against Escherichia coli MG1655 harboring pIbpA-lux assessed as maximum induction factor at 10^-10 M after 120 mins by luminometric analysis", "type": "functional, K-12 substr. MG1655"}, "[9]": {"test": "Activation of quorum sensing system luxR in Escherichia coli MG1655 harboring pVFR1-lux assessed as maximum induction factor at 10^-11 M after 120 mins by luminometric analysis", "conditions": "Escherichia coli str. K-12 substr. MG1655"}, "[10]": {"test_system": "Escherichia coli", "test": "Antibacterial activity against Escherichia coli MG1655 harboring pIbpA-lux assessed as maximum induction factor at 10^-3 M after 120 mins by luminometric analysis", "type": "functional, K-12 substr. MG1655"}, "[11]": {"test_system": "Escherichia coli", "test": "Antibacterial activity against Escherichia coli MG1655 harboring pRecA-lux assessed as maximum induction factor at 10^-4 M after 120 mins by luminometric analysis", "type": "functional, K-12 substr. MG1655"}, "[12]": {"test_system": "Escherichia coli", "test": "Antibacterial activity against Escherichia coli MG1655 harboring pKatG-lux assessed as maximum induction factor at 10^-12 M after 120 mins by luminometric analysis", "type": "functional, K-12 substr. MG1655"}, "[13]": {"test_system": "Escherichia coli", "test": "Antibacterial activity against Escherichia coli MG1655 harboring pSoxS-lux assessed as maximum induction factor at 10^-9 M after 120 mins by luminometric analysis", "type": "functional, K-12 substr. MG1655"}, "[14]": {"test_system": "Escherichia coli", "test": "Antibacterial activity against Escherichia coli MG1655 harboring pColD-lux assessed as maximum induction factor at 10^-8 M after 120 mins by luminometric analysis", "type": "functional, K-12 substr. MG1655"}, "[15]": {"test_system": "Escherichia coli", "test": "Antibacterial activity against Escherichia coli MG1655 harboring pIbpA-lux assessed as maximum induction factor at 10^-9 M after 120 mins by luminometric analysis", "type": "functional, K-12 substr. MG1655"}, "[16]": {"test_system": "Escherichia coli", "test": "Antibacterial activity against Escherichia coli MG1655 harboring pSoxS-lux assessed as maximum induction factor at 10^-6 M after 120 mins by luminometric analysis", "type": "functional, K-12 substr. MG1655"}, "[17]": {"test_system": "Vibrio sp.", "test": "Antibacterial activity against Vibrio aqamarinus VKPM B-11245 assessed as toxicity index at 10^-10 M measured for 2 hrs by luminometric analysis", "type": "functional"}, "[18]": {"test": "Activation of quorum sensing system luxR in Escherichia coli MG1655 harboring pVFR1-lux assessed as maximum induction factor at 10^-13 M after 120 mins by luminometric analysis", "conditions": "Escherichia coli str. K-12 substr. MG1655"}, "[19]": {"test_system": "Escherichia coli", "test": "Antibacterial activity against Escherichia coli MG1655 harboring pGrpE-lux assessed as maximum induction factor at 10^-9 M after 120 mins by luminometric analysis", "type": "functional, K-12 substr. MG1655"}, "[20]": {"test_system": "Escherichia coli", "test": "Antibacterial activity against Escherichia coli MG1655 harboring pRecA-lux assessed as maximum induction factor at 10^-14 M after 120 mins by luminometric analysis", "type": "functional, K-12 substr. MG1655"}, "[21]": {"test_system": "Escherichia coli", "test": "Antibacterial activity against Escherichia coli MG1655 harboring pKatG-lux assessed as maximum induction factor at 10^-4 M after 120 mins by luminometric analysis", "type": "functional, K-12 substr. MG1655"}, "[22]": {"test_system": "Escherichia coli", "test": "Antibacterial activity against Escherichia coli MG1655 harboring pKatG-lux assessed as maximum induction factor at 10^-7 M after 120 mins by luminometric analysis", "type": "functional, K-12 substr. MG1655"}, "[23]": {"test_system": "Escherichia coli", "test": "Antibacterial activity against Escherichia coli MG1655 harboring pRecA-lux assessed as maximum induction factor at 10^-7 M after 120 mins by luminometric analysis", "type": "functional, K-12 substr. MG1655"}, "[24]": {"test_system": "Escherichia coli", "test": "Antibacterial activity against Escherichia coli MG1655 harboring pXen7 assessed as toxicity index at 10^-3 M measured for 2 hrs by luminometric analysis", "type": "functional, K-12 substr. MG1655"}, "[25]": {"test_system": "Escherichia coli", "test": "Antibacterial activity against Escherichia coli MG1655 harboring pXen7 assessed as toxicity index at 10^-12 M measured for 2 hrs by luminometric analysis", "type": "functional, K-12 substr. MG1655"}, "[26]": {"test": "Activation of quorum sensing system luxR in Escherichia coli MG1655 harboring pVFR1-lux assessed as maximum induction factor at 10^-5 M after 120 mins by luminometric analysis", "conditions": "Escherichia coli str. K-12 substr. MG1655"}, "[27]": {"test_system": "Escherichia coli", "test": "Antibacterial activity against Escherichia coli MG1655 harboring pSoxS-lux assessed as maximum induction factor at 10^-14 M after 120 mins by luminometric analysis", "type": "functional, K-12 substr. MG1655"}, "[28]": {"test_system": "Escherichia coli", "test": "Antibacterial activity against Escherichia coli MG1655 harboring pXen7 assessed as toxicity index at 10^-13 M measured for 2 hrs by luminometric analysis", "type": "functional, K-12 substr. MG1655"}, "[29]": {"test_system": "Vibrio sp.", "test": "Antibacterial activity against Vibrio aqamarinus VKPM B-11245 assessed as toxicity index at 10^-7 M measured for 2 hrs by luminometric analysis", "type": "functional"}, "[30]": {"test_system": "Escherichia coli", "test": "Antibacterial activity against Escherichia coli MG1655 harboring pKatG-lux assessed as maximum induction factor at 10^-6 M after 120 mins by luminometric analysis", "type": "functional, K-12 substr. MG1655"}, "[31]": {"test_system": "Escherichia coli", "test": "Antibacterial activity against Escherichia coli MG1655 harboring pSoxS-lux assessed as maximum induction factor at 10^-12 M after 120 mins by luminometric analysis", "type": "functional, K-12 substr. MG1655"}, "[32]": {"test": "Activation of quorum sensing system luxR in Escherichia coli MG1655 harboring pVFR1-lux assessed as maximum induction factor at 10^-14 M after 120 mins by luminometric analysis", "conditions": "Escherichia coli str. K-12 substr. MG1655"}, "[33]": {"test_system": "Escherichia coli", "test": "Antibacterial activity against Escherichia coli MG1655 harboring pRecA-lux assessed as maximum induction factor at 10^-9 M after 120 mins by luminometric analysis", "type": "functional, K-12 substr. MG1655"}, "[34]": {"test_system": "Escherichia coli", "test": "Antibacterial activity against Escherichia coli MG1655 harboring pGrpE-lux assessed as maximum induction factor at 10^-8 M after 120 mins by luminometric analysis", "type": "functional, K-12 substr. MG1655"}, "[35]": {"test_system": "Vibrio sp.", "test": "Antibacterial activity against Vibrio aqamarinus VKPM B-11245 assessed as toxicity index at 10^-3 M measured for 2 hrs by luminometric analysis", "type": "functional"}, "[36]": {"test_system": "Escherichia coli", "test": "Antibacterial activity against Escherichia coli MG1655 harboring pIbpA-lux assessed as maximum induction factor at 10^-6 M after 120 mins by luminometric analysis", "type": "functional, K-12 substr. MG1655"}, "[37]": {"test_system": "Escherichia coli", "test": "Antibacterial activity against Escherichia coli MG1655 harboring pKatG-lux assessed as maximum induction factor at 10^-8 M after 120 mins by luminometric analysis", "type": "functional, K-12 substr. MG1655"}, "[38]": {"test_system": "Vibrio sp.", "test": "Antibacterial activity against Vibrio aqamarinus VKPM B-11245 assessed as toxicity index at 10^-11 M measured for 2 hrs by luminometric analysis", "type": "functional"}, "[39]": {"test_system": "Escherichia coli", "test": "Antibacterial activity against Escherichia coli MG1655 harboring pRecA-lux assessed as maximum induction factor at 10^-6 M after 120 mins by luminometric analysis", "type": "functional, K-12 substr. MG1655"}, "[40]": {"test_system": "Vibrio sp.", "test": "Antibacterial activity against Vibrio aqamarinus VKPM B-11245 assessed as toxicity index at 10^-4 M measured for 2 hrs by luminometric analysis", "type": "functional"}}}
{"compound": "O=[N+]([O-])c1cc([N+](=O)[O-])c2no[n+]([O-])c2c1Sc1nc2ccccc2s1", "values": [{"measurement": "Activity", "setting": "[1]", "value": 5.94}, {"measurement": "Activity", "setting": "[2]", "value": 1.1}, {"measurement": "Activity", "setting": "[3]", "value": 0.18}, {"measurement": "Activity", "setting": "[4]", "value": 3.44}, {"measurement": "Activity", "setting": "[5]", "value": 0}, {"measurement": "Activity", "setting": "[6]", "value": 0.99}, {"measurement": "Activity", "setting": "[7]", "value": 1.31}, {"measurement": "Activity", "setting": "[8]", "value": 1.14}, {"measurement": "Activity", "setting": "[9]", "value": 1.51}, {"measurement": "Activity", "setting": "[10]", "value": 1.19}, {"measurement": "Activity", "setting": "[11]", "value": 0.85}, {"measurement": "Activity", "setting": "[12]", "value": 1.12}, {"measurement": "Activity", "setting": "[13]", "value": 1.08}, {"measurement": "Activity", "setting": "[14]", "value": 1.08}, {"measurement": "Activity", "setting": "[15]", "value": 1.09}, {"measurement": "Activity", "setting": "[16]", "value": 1.28}, {"measurement": "Activity", "setting": "[17]", "value": 11.61}, {"measurement": "Activity", "setting": "[18]", "value": 1.77}, {"measurement": "Activity", "setting": "[19]", "value": 1.03}, {"measurement": "Activity", "setting": "[20]", "value": 1.07}, {"measurement": "Activity", "setting": "[21]", "value": 0.3}, {"measurement": "Activity", "setting": "[22]", "value": 0.91}, {"measurement": "Activity", "setting": "[23]", "value": 1.01}, {"measurement": "Activity", "setting": "[24]", "value": 99.87}, {"measurement": "Activity", "setting": "[25]", "value": 10.52}, {"measurement": "Activity", "setting": "[26]", "value": 1.64}, {"measurement": "Activity", "setting": "[27]", "value": 1.2}, {"measurement": "Activity", "setting": "[28]", "value": 0}, {"measurement": "Activity", "setting": "[29]", "value": 22.52}, {"measurement": "Activity", "setting": "[30]", "value": 0.8}, {"measurement": "Activity", "setting": "[31]", "value": 1.41}, {"measurement": "Activity", "setting": "[32]", "value": 2.87}, {"measurement": "Activity", "setting": "[33]", "value": 1.02}, {"measurement": "Activity", "setting": "[34]", "value": 1.08}, {"measurement": "Activity", "setting": "[35]", "value": 98.83}, {"measurement": "Activity", "setting": "[36]", "value": 1.28}, {"measurement": "Activity", "setting": "[37]", "value": 0.84}, {"measurement": "Activity", "setting": "[38]", "value": 19.14}, {"measurement": "Activity", "setting": "[39]", "value": 0.92}, {"measurement": "Activity", "setting": "[40]", "value": 99.1}]}
